Holding throughout (assay type): biochemical
Test [1] addresses T1, CYP3A4 (Homo sapiens, UniProt P08684).
T1 construct: 0.1 mg/mL human liver microsomes; from tissue; host or cells: human liver microsomes
Description: IC50 against CYP3A4 by inhibition of testosterone metabolism in human liver microsomes. To be noted: 0.1 mg/mL human liver microsomes, 25 μM testosterone, 1 mM NADPH, 6-β-OH-testosterone production, eight minutes; read-out: IC50, μM (HLM, testosterone). On the procedure:
2. Determination of IC50 Against CYP3A4 by Measurement of Inhibition of Testosterone Metabolism
This assay was performed using a standard 96 well plate design. […] Quantitation of metabolite peak area ratio against an internal standard is determined by LC-MS/MS analysis. The production of 6-β-OH-testosterone from testosterone metabolism is determined after incubation for eight minutes by comparison to a standard curve generated for the metabolite
(§1) Samples were analyzed in the MRM mode using a Sciex API 3000 mass spectrometer (Applied Biosystems, Foster City, Calif.) with a Paradigm MS4 binary pump (Michrom BioResources Inc., Auburn, Calif.) and a LEAP CTC PAL autosampler (LEAP Technologies, Carrboro, N.C.). A Phenomenex Synergi, 4μ, Polar-RP, 10×2.0 mm column (Phenomenex, Torrance, Calif.) was used for separation with a mobile phase composition of: 0.1% formic acid in water (A) and: 0.1% formic acid in methanol (B). The following gradient was used: […]
(§2) The sample injection volume was 10 μL and flow was split post-column with 0.4 mL/min going to the mass spectrometer. Analysis was performed using the following API 3000 mass spectrometer settings: […]

For test [2], the target named is T1, CYP3A4. Description: IC50 against CYP3A4 by inhibition of midazolam metabolism in human liver microsomes. The conditions noted are these: 0.1 mg/mL human liver microsomes, 2 μM midazolam, 1 mM NADPH, 1-hydroxymidazolam production, eight minutes; read-out: IC50, μM (HLM, midazolam). As for the experimental part: 3. Determination of IC50 Against CYP3A4 by Measurement of Inhibition of Midazolam Metabolism
This assay was performed using a standard 96 well plate design. […] The incubation substrate mix contains 2 μM midazolam, 0.1 mg/mL human liver microsomes, 1 mM NADPH, and potassium phosphate buffer (100 mM, pH 7.4). Quantitation of metabolite peak area ratio against internal standard is determined by LC-MS/MS analysis. The production of 1-hydroxymidazolam from midazolam metabolism is determined after incubation for eight minutes by comparison to a standard curve generated for the metabolite.
as §1, §2

Test [3] addresses T2, recombinant CYP3A4-b5 enzyme (Baculosomes®) (Homo sapiens, UniProt P08684).
T2 construct: purchased Invitrogen (Carlsbad, Calif.)
The test is described as follows: Kiapp against recombinant CYP3A4 enzyme (Baculosomes), BFC substrate. The conditions noted are these: recombinant CYP3A4-b5 (Invitrogen), 5 uM BFC, 200 uM NADPH, pre-incubation at least 30 minutes, pH 7.0, room temperature. On the procedure:
1. Determination of Compound Kiapp
A determination of the Kiapp of the compounds of the invention against recombinant CYP3A4 enzyme was performed as follows. The assay was performed in a 100 mM sodium phosphate buffer pH 7.0, 5 mM TCEP and containing 2% dimethylformamide (final concentration) upon addition of substrate and inhibitor. A typical reaction for the determination of Kiapp values was carried at room temperature in a solid black Costar u-bottom 96-well polypropylene plate. […] When pre-incubation was completed (˜30 min), the reaction was initiated by adding NADPH (200 uM, final concentration), and 7-benzyloxy-4-(trifluoromethyl)-coumarin (BFC) (5 uM, final concentration). The oxidation of the coumarin substrate was recorded by a 96-well plate reader POLARstar (BMG LABTECH, Offenburg, Germany).
The initial reaction velocities were measured during the first 5 min of the reaction when the release of the fluorescent product is linear with time, in the absence and in the presence of various concentrations of inhibitors.
The fluorescent substrate BFC was purchased from Sigma (St Louis, Mo.). Two commercial sources of recombinant enzymes were used in this study: recombinant CYP3A4-b5 enzyme (Baculosomes®) was purchased from Invitrogen (Carlsbad, Calif.) and the recombinant CYP3A4+b5 enzyme (Supersomes®) was purchased from BD Biosciences (Woburn, Mass.).

T2 sequence (P08684 whole entry): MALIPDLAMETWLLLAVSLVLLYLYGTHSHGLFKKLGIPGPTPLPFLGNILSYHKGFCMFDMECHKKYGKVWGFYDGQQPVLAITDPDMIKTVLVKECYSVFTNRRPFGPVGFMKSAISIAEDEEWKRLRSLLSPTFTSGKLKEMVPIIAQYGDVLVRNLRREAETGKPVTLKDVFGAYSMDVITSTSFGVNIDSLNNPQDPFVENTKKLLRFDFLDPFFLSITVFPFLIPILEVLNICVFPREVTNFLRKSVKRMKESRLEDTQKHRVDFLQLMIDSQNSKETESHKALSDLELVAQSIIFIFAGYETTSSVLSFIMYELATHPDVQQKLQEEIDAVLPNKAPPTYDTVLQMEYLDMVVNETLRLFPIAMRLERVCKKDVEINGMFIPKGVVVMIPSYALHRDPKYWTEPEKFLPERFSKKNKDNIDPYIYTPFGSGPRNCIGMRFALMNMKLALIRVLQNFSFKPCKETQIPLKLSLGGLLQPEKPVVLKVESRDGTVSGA
T1 sequence (P08684 whole entry): as above

The term IC50 denotes the concentration that gives 50% inhibition. `N[C@@H]1CCN(C(=O)Cn2nc(-c3ccncc3)cc2Cc2ccc(F)cc2)C1` [Example 65, (3R)-1-{[5-(4-fluorobenzyl)-3-pyridin-4-yl-1H-pyrazol-1-yl]acetyl}pyrrolidin-3-amine]: the 50% inhibitory concentration (IC50) in test [1] turned out to be 0.134 µM; in test [2], 0.059 µM. Besides, the Ki in test [3] amounted to 0.673 µM.

With `O=C(CCN1CCOCC1)N1CC(n2nc(-c3ccncc3)cc2Cc2ccc(F)cc2)C1` [Example 67, 4-(3-{3-[5-(4-fluorobenzyl)-3-pyridin-4-yl-1H-pyrazol-1-yl]azetidin-1-yl}-3-oxopropyl)morpholine], the figures for the IC50 in test [1] and in test [2] were 0.052 µM and 0.042 µM, respectively. In test [3], the Ki came to 0.074 µM.

Take `O=C(c1ncccn1)N1CC(n2nc(-c3ccncc3)cc2Cc2ccc(F)cc2)C1` [Example 68, 2-({3-[5-(4-fluorobenzyl)-3-pyridin-4-yl-1H-pyrazol-1-yl]azetidin-1-yl}carbonyl)pyrimidine]: the IC50 in test [1] worked out at 0.081 µM; in test [2] it was 0.091 µM. Moreover, the Ki in test [3] is 0.137 µM.

On to `NC(=O)c1noc(Cn2nc(-c3ccncc3)cc2Cc2ccc(F)cc2)n1` [Example 69, 5-{[5-(4-fluorobenzyl)-3-pyridin-4-yl-1H-pyrazol-1-yl]methyl}-1,2,4-oxadiazole-3-carboxamide], for which the concentration for half-maximal inhibition (IC50) in test [1] is 0.0203 µM; in test [2], 0.0555 µM. Moreover, the Ki in test [3] stood at 0.18 µM.

Consider `Fc1ccc(Cc2cc(-c3ccncc3)nn2Cc2nc(N3CCOCC3)no2)cc1` [Example 70, 4-(5-{[5-(4-fluorobenzyl)-3-pyridin-4-yl-1H-pyrazol-1-yl]methyl}-1,2,4-oxadiazol-3-yl)morpholine], for which the results for the IC50 in test [1] and in test [2] were < 0.012 µM and 0.019 µM, respectively. Also, in test [3], the Ki was found to be 0.0238 µM.

Consider `CN(C)[C@@H]1CCN(C(=O)Cn2nc(-c3ccncc3)cc2Cc2ccc(F)cc2)C1` [Example 72, (3R)-1-{[5-(4-fluorobenzyl)-3-pyridin-4-yl-1H-pyrazol-1-yl]acetyl}-N,N-dimethylpyrrolidin-3-amine], for which the IC50 in test [1] and in test [2] was 0.026 µM in each case. Besides, in test [3], the Ki turned out to be 0.226 µM.

In the case of `CNC1CCN(C(=O)Cn2nc(-c3ccncc3)cc2Cc2ccc(F)cc2)C1` (stereo not drawn) [Example 74, 1-{[5-(4-fluorobenzyl)-3-pyridin-4-yl-1H-pyrazol-1-yl]acetyl}-N-methylpyrrolidin-3-amine], the figures for the half-maximal inhibitory concentration (IC50) in test [1] and in test [2] were 0.114 µM and 0.046 µM, respectively. Moreover, the Ki in test [3] amounted to 0.19 µM.

As to `O=C(Cn1nc(-c2ccncc2)cc1Cc1ccc(F)cc1)N1CCC[C@@H]1CO` [Example 75, [(2R)-1-{[5-(4-fluorobenzyl)-3-pyridin-4-yl-1H-pyrazol-1-yl]acetyl}pyrrolidin-2-yl]methanol], the IC50 was 0.0215 µM in test [1] and 0.0175 µM in test [2]. Moreover, the Ki in test [3] is 0.118 µM.

Take `O=C(Cn1nc(-c2ccncc2)cc1Cc1ccc(F)cc1)N1CCCC(O)C1` (stereo not drawn) [Example 76, 1-{[5-(4-fluorobenzyl)-3-pyridin-4-yl-1H-pyrazol-1-yl]acetyl}piperidin-3-ol]: the half-inhibitory concentration (IC50) was 0.0333 µM in test [1] and < 0.0184 µM in test [2]. The Ki in test [3] was 0.117 µM.

Turning to `O=C(Cn1nc(-c2ccncc2)cc1Cc1ccc(F)cc1)N1CCC[C@H]1CO` [Example 77, [(2S)-1-{[5-(4-fluorobenzyl)-3-pyridin-4-yl-1H-pyrazol-1-yl]acetyl}pyrrolidin-2-yl]methanol], the IC50 in test [1] worked out at 0.0545 µM; in test [2], 0.0511 µM. Moreover, in test [3], the Ki turned out to be 0.166 µM.

With `CCn1ccnc1CNC(=O)Cn1nc(-c2ccncc2)cc1Cc1ccc(F)cc1` [Example 79, N-[(1-ethyl-1H-imidazol-2-yl)methyl]-2-[5-(4-fluorobenzyl)-3-pyridin-4-yl-1H-pyrazol-1-yl]acetamide], the figures for the IC50 in test [1] and in test [2] were 0.019 µM and 0.016 µM, respectively. Also, in test [3], the Ki was found to be 0.052 µM.

`CCc1nc(CNC(=O)Cn2nc(-c3ccncc3)cc2Cc2ccc(F)cc2)no1` [Example 80, N-[(5-ethyl-1,2,4-oxadiazol-3-yl)methyl]-2-[5-(4-fluorobenzyl)-3-pyridin-4-yl-1H-pyrazol-1-yl]acetamide]: the IC50 in test [1] was 0.065 µM; in test [2] it was 0.064 µM. In addition, the Ki in test [3] amounted to 0.0516 µM.

As for `O=C(Cn1nc(-c2ccncc2)cc1Cc1ccc(F)cc1)NCc1ncc(F)cn1` [Example 81, 2-[5-(4-fluorobenzyl)-3-pyridin-4-yl-1H-pyrazol-1-yl]-N-[(5-fluoropyrimidin-2-yl)methyl]acetamide], the IC50 in test [1] was found to be 0.068 µM; in test [2], 0.063 µM. The Ki in test [3] is 0.124 µM.

Turning to `CC(Cc1cnccn1)NC(=O)Cn1nc(-c2ccncc2)cc1Cc1ccc(F)cc1` (stereo not drawn) [Example 82, 2-[5-(4-fluorobenzyl)-3-pyridin-4-yl-1H-pyrazol-1-yl]-N-(1-methyl-2-pyrazin-2-ylethyl)acetamide], the IC50 in test [1] stood at 0.025 µM; in test [2], 0.023 µM. The Ki in test [3] amounted to 0.109 µM.

With `CN(C(=O)Cn1nc(-c2ccncc2)cc1Cc1ccc(F)cc1)[C@H]1CC[C@H](O)CC1` [Example 83, 2-[5-(4-fluorobenzyl)-3-pyridin-4-yl-1H-pyrazol-1-yl]-N-(trans-4-hydroxycyclohexyl)-N-methylacetamide], the IC50 in test [1] stood at 0.0235 µM; in test [2], 0.015 µM. Besides, in test [3], the Ki amounted to 0.0458 µM.

For the molecule `NC(=O)[C@@H]1CCC[C@@H]1NC(=O)Cn1nc(-c2ccncc2)cc1Cc1ccc(F)cc1` [Example 84, (1R,2S)-2-({[5-(4-fluorobenzyl)-3-pyridin-4-yl-1H-pyrazol-1-yl]acetyl}amino)cyclo-pentanecarboxamide], the IC50 came out at 0.041 µM in test [1] and 0.021 µM in test [2]. The Ki in test [3] turned out to be 0.156 µM.

For `CC(NC(=O)Cn1nc(-c2ccncc2)cc1Cc1ccc(F)cc1)c1cnn(C)c1` (stereo not drawn) [Example 85, 2-[5-(4-fluorobenzyl)-3-pyridin-4-yl-1H-pyrazol-1-yl]-N-[1-(1-methyl-1H-pyrazol-4-yl)ethyl]acetamide], the IC50 in test [1] was 0.028 µM; in test [2], 0.031 µM. The Ki in test [3] was found to be 0.0843 µM.

For `Cc1cc(CNC(=O)Cn2nc(-c3ccncc3)cc2Cc2ccc(F)cc2)on1` [Example 86, 2-[5-(4-fluorobenzyl)-3-pyridin-4-yl-1H-pyrazol-1-yl]-N-[(3-methylisoxazol-5-yl)methyl]acetamide], the IC50 in test [1] was found to be 0.013 µM; in test [2], 0.018 µM. For the same molecule, in test [3], the Ki turned out to be 0.0571 µM.

With `Cn1ccnc1CNC(=O)Cn1nc(-c2ccncc2)cc1Cc1ccc(F)cc1` [Example 87, 2-[5-(4-fluorobenzyl)-3-pyridin-4-yl-1H-pyrazol-1-yl]-N-[(1-methyl-1H-imidazol-2-yl)methyl]acetamide], the half-maximal inhibitory concentration (IC50) in test [1] and in test [2] was 0.019 µM throughout. Further, the Ki in test [3] came out at 0.108 µM.

In the case of `Cc1cc(CNC(=O)Cn2nc(-c3ccncc3)cc2Cc2ccc(F)cc2)no1` [Example 88, 2-[5-(4-fluorobenzyl)-3-pyridin-4-yl-1H-pyrazol-1-yl]-N-[(5-methylisoxazol-3-yl)methyl]acetamide], the IC50 was 0.016 µM in test [1] and 0.024 µM in test [2]. Also, the Ki in test [3] turned out to be 0.0753 µM.

Consider `Cc1c(CNC(=O)Cn2nc(-c3ccncc3)cc2Cc2ccc(F)cc2)cnn1C` [Example 89, N-[(1,5-dimethyl-1H-pyrazol-4-yl)methyl]-2-[5-(4-fluorobenzyl)-3-pyridin-4-yl-1H-pyrazol-1-yl]acetamide], for which the concentration for half-maximal inhibition (IC50) in test [1] amounted to 0.015 µM; in test [2], 0.016 µM. Further, the Ki in test [3] stood at 0.0728 µM.

The values above are taken from patent US7919488B2, “Therapeutic compounds” (Pfizer Inc., priority 2006, dated 2011).
